# Test results published in patent US11421349B2, “Photoactivatable fibers and fabric media” (KLOX TECHNOLOGIES INC., priority 2014, dated 2022).
# Legend:
# Assay type in all cases: physicochemical
# [1] = Qualitative analysis of dental fiber doping (fluorescence under blue lamp)
# Text: Commercially available dental fibers were dipped into solutions of Eosin […], or 0.1 g/L) for 10 seconds. The fibers were taken out and observed for color, then put under a blue lamp and the fluorescence was observed qualitatively. […] Dental fibers were dipped into solutions of fluorescein (50 […]) for 10 seconds. The fibers were then taken out and observed for color, then put under a blue lamp and the fluorescence was observed qualitatively. […] Dental fibers were dipped into solutions of fluorescein:Eosin […] total chromophore) solution for 10 seconds again. The fibers were then taken out and observed for color, then put under a blue lamp and the fluorescence was observed qualitatively.
# [2] = Effect of addition of a lubricant (lurol oil) on the fluorescence emitted from Eosin Y solution; conditions: 320 μL lurol oil added to 2 mL of 109 μg/g Eosin Y in water
# Description: The fluorescence of these two solutions was measured to determine if the lurol oil had any effect (FIG. 4).
# [3] = Effect of addition of a lubricant on the fluorescence emission of photoactivatable (doped) fibers; conditions: same concentration, lurol oil added, FIG. 5B
# Text: In the case of low concentrations of chromophore it can slightly red shift, and reduces bleaching time considerably. In higher concentrations of chromophore it red shifts, as well as increase fluorescence. The most effect seems to be around 10 g/L of lurol oil. Initially the fluorescence of Eosin Y doped fibers was 0.01 (FIG. 5A), but with the lurol oil added the fluorescence is boosted to 0.7. A comparison was done of Eosin Y and Fluorescein at the same concentration with lurol oil added.
Compound,"fluorescence observed qualitatively under blue lamp ([1]; commercial dental fibers dipped 10 seconds, 300-100 g/L solutions)","fluorescence observed qualitatively under blue lamp ([1]; dental fibers dipped 10 seconds, 10 g/L solution)","fluorescence observed qualitatively under blue lamp ([1]; dental fibers dipped 10 seconds, 50 g/L solution)",photodegradation of Eosin Y solution with lurol oil [2],shift of the fluorescence of the solution with lurol oil [2],fluorescence of Eosin Y solution with lurol oil versus without ([2]; FIG. 4),photo-degradation compared with Eosin Y [3]
"O=C([O-])c1ccccc1-c1c2cc(Br)c(=O)c(Br)c-2oc2c(Br)c([O-])c(Br)cc12.[Na+].[Na+] [Eosin Y, 2′,4′,5′,7′-tetrabromo-fluorescein, dianion]",little fluorescence,significant increase in fluorescence,showed fluorescence,barely photodegraded,red shifted,almost twice as fluorescent,
O=C1OC2(c3ccc(O)cc3Oc3cc(O)ccc32)c2ccccc21 [fluorescein],,,,,,,photo-degrades faster
